Measurements published in ChEMBL document CHEMBL5550091 (2024).
pEC50, pIC50, pKi: −log10 of the molar value. The source made the active and inactive calls. No cut-off for these calls is given here.

What was measured:
[1] = Displacement of BODIPY TMR-X-labeled P11 peptide from recombinant N-terminal deca-His/SUMO tagged RTA (1 to 267 residues) (unknown origin) expressed in Escherichia coli BL21 (DE3) incubated for 30 mins by competition binding based fluorescence polarization assay
[2] = Inhibition of recombinant N-terminal deca-His/SUMO tagged RTA (1 to 267 residues) (unknown origin) expressed in Escherichia coli BL21 (DE3) mediated ribosome depurination activity assessed as maximal inhibition of cellular ribosomal RNA depurination preincubated with compound for 5 mins followed by addition of rat liver ribosomes and measured after 5 mins by qRT-PCR analysis relative to control; format: subcellular; details: time 10.0 min
[3] = Inhibition of recombinant N-terminal deca-His/SUMO tagged RTA (1 to 267 residues) (unknown origin) expressed in Escherichia coli BL21 (DE3) mediated ribosome depurination activity assessed as reduction in ribosomal RNA depurination preincubated with compound for 5 mins followed by addition of rat liver ribosomes and measured after 5 mins by qRT-PCR analysis; format: subcellular
[4] = Displacement of BODIPY TMR-X-labeled P11 peptide from recombinant N-terminal deca-His/SUMO tagged RTA (1 to 267 residues) (unknown origin) expressed in Escherichia coli BL21 (DE3) assessed as inhibition constant incubated for 30 mins by competition binding based fluorescence polarization assay
[5] = Inhibition of STX2A1 (unknown origin) mediated ribosomal depurination activity assessed as reduction in ribosomal RNA depurination preincubated with compound for 5 mins followed by addition of rat liver ribosomes and measured after 5 mins by qRT-PCR analysis; format: subcellular, Ribosome
cells [6] = format: cell-based; details: Vero, 2 h
cells [7] = format: cell-based; details: A549, 2 h

| Compound | Imax [2] | pIC50 [1] | pIC50 [3] | pKi [4] | also measured |
| --- | --- | --- | --- | --- | --- |
| NC(=O)c1cccc2c1-c1ccccc1C2=O |  |  |  |  | Activity [1]: inactive |
| Cc1cccc(C)c1-c1ccc(C(=O)O)s1 | 102% | 4.51 | 4.35 |  |  |
| O=C(O)c1cc2c(s1)-c1ccccc1CC2 | 100% |  |  |  |  |
| O=C(O)c1ccc(-c2ccccc2)s1 |  | 3.65 | 3.39 | 4.24 |  |
| H-RGWGHPSGYS-OH |  |  |  |  | Activity [1]: inactive |
| H-SDDDMGFGLFD-OH |  | 5.40 | 4.51 | 6.00 |  |
| CC1(C)Cc2cc(C(=O)O)sc2-c2ccccc21 | 112% |  | 4.64 |  | pIC50 [5]: 4.08; pEC50 (cells [6]): 4.54; pEC50 (cells [7]): 4.04 |
| O=C(O)c1cc2c(s1)-c1cc(Cl)ccc1SC2 |  | 4.23 |  | 4.82 |  |
| O=C(O)c1cc2c(s1)-c1ccc(F)cc1CC2 | 104% | 4.77 | 4.49 |  |  |
